These results are taken from PMC2841792 (Journal of medicinal chemistry, 2010).

Data set [1] deals with neuron. The conditions noted are these: not told; cited from earlier work.
Data set [2] concerns the target T1, BoNT/A LC (Clostridium botulinum, UniProt P0DPI0). The data set can be described thus: biochemical. Type of data set: biochemical.
Data set [3] deals with T2, human MMP-1 (Homo sapiens, UniProt P03956).
T2 sequence (P03956 100-469): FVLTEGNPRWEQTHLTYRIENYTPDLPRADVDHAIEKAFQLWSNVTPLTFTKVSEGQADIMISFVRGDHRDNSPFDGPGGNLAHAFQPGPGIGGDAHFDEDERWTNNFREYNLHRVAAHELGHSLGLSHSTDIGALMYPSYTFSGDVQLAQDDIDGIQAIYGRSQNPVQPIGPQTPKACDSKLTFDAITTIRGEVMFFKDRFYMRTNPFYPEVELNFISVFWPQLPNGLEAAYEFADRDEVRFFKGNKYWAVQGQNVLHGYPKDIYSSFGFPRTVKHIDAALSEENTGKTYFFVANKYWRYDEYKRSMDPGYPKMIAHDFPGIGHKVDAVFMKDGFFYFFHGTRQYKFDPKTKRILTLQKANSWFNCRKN
Type of data set: biochemical.

Data set [4] deals with BoNT/B LC (Clostridium botulinum, UniProt P10844). Type of data set: biochemical.
BoNT/B LC, sequence (P10844 2-441 limits assumed): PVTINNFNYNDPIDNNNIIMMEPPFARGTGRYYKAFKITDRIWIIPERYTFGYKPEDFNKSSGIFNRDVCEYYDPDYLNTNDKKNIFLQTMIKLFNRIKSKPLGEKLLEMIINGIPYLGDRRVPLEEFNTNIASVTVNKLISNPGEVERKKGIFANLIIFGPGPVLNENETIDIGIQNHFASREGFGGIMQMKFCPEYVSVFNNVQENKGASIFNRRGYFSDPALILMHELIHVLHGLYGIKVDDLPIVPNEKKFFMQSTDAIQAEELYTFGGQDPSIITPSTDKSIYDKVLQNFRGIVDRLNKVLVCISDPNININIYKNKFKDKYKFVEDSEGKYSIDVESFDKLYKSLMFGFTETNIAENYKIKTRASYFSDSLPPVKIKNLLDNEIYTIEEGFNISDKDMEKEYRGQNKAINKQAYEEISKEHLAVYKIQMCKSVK
Data set [5] concerns the target MMP-9 (Homo sapiens, UniProt P14780). The class given is biochemical.
The subject of data set [6] is chick neuronal assay. Type of data set: cell-based.
Data set [7] concerns the target anthrax lethal factor (LF) (Bacillus anthracis, UniProt P15917). Nature of the data set: biochemical.
Data set [8] deals with T1, BoNT/A LC. The data set can be described thus: biochemical.

Entries after “also recorded” stand apart in the source; their conditions may differ. Structures can show the parent of a compound that is named as a salt. Where two headings read alike, the source gives them in different places.

T1 sequence (P0DPI0 2-448 limits assumed): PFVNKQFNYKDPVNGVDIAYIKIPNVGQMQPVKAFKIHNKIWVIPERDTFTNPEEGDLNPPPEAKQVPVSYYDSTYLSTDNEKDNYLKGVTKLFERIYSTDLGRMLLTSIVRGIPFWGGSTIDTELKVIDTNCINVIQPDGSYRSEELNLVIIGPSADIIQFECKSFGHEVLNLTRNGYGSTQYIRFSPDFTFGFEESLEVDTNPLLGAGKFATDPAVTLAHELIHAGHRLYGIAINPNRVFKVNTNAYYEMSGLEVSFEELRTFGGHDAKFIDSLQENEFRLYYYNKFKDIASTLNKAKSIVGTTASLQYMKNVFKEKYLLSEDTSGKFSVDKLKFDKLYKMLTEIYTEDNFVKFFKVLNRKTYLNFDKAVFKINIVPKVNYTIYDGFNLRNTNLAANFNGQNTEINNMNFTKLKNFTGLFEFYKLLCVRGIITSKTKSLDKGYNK
anthrax lethal factor (LF), sequence (P15917 34-809 limits assumed): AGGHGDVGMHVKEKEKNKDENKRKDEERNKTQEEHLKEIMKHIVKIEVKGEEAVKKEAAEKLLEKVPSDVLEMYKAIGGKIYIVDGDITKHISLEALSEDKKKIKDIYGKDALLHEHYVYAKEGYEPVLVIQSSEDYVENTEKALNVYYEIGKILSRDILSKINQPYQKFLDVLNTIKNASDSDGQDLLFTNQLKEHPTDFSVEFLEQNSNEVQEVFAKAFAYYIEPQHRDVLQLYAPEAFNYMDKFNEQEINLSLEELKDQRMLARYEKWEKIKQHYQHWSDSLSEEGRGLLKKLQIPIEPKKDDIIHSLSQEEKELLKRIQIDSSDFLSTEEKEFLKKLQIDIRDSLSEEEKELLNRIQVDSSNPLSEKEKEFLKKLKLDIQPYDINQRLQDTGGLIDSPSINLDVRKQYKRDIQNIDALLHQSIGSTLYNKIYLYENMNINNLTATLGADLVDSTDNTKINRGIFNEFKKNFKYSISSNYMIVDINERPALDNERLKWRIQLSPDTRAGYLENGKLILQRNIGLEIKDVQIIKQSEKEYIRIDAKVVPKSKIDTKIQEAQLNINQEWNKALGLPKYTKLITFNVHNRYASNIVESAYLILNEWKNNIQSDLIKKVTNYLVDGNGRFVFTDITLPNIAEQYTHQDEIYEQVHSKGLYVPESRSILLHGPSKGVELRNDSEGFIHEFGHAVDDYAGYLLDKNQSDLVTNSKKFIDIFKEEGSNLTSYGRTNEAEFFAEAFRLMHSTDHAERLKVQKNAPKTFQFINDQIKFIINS
MMP-9, sequence (P14780 94-707): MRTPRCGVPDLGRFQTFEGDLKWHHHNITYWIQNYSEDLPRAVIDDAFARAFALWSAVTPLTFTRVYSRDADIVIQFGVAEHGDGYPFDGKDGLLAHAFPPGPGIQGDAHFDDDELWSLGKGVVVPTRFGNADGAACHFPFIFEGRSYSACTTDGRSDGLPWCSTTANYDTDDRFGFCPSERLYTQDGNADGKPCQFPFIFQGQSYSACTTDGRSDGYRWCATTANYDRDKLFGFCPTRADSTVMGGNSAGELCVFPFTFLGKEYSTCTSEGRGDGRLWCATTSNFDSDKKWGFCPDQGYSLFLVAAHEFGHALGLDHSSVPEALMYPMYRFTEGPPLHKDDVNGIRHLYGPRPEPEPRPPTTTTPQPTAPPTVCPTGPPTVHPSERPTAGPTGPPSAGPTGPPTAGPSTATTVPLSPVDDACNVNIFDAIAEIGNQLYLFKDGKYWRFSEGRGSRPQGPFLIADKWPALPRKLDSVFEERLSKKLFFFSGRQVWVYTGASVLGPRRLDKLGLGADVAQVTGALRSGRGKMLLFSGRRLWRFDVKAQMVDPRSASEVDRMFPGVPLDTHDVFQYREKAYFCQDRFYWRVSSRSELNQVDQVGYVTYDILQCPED

Regarding `Cl.Cl.N=C(N)c1ccc(Oc2ccc(-c3cc4ccc(C(=N)N)cc4[nH]3)cc2)cc1` [Compound 5], the neuron permeability entry in data set [1] was “neuron-permeable”. Consider `N#Cc1ccc(Oc2ccc(-c3cc4ccc(C(=N)N)cc4[nH]3)cc2)cc1` [Compound 11, 2-(4-(4-Cyanophenoxy)phenyl)-1H-indole-6-carboximidamide hydrochloride salt], for which the “inhibitory activity against BoNT/A LC (in words)” value (“inhibitory activity … (in words)” for short) in data set [2] was “no activity”. Consider `CN(C)CC/N=C(\N)c1ccc(Oc2ccc(-c3cc4ccc(/C(N)=N/CCN(C)C)cc4[nH]3)cc2)cc1` [Compound 12], for which the “inhibitory activity against human MMP-1” value in data set [3] is “no inhibitory activities; also recorded: does not inhibit”. In addition, in data set [2], the “dependence of inhibitory activity on Zn concentration” value is “independent of the Zn concentration” and the “fold more potent than the lead structure (compound 5) against BoNT/A LC” value turned out to be 4.4 fold. The “inhibitory activity against BoNT/B” value in data set [4] is recorded as “no inhibitory activities; also recorded: does not inhibit”. The “inhibitory activity against MMP-9” value in data set [5] is “no inhibitory activities; also recorded: does not inhibit”. Besides, the “cellular activity in a chick neuronal assay” value in data set [6] was “showed cellular activity”.

For `OC1CN=C(c2ccc(Oc3ccc(-c4cc5ccc(C6=NCC(O)CN6)cc5[nH]4)cc3)cc2)NC1` (stereo not drawn) [Compound 15, 2-(4-(4-(6-(5-Hydroxy-1,4,5,6-tetrahydropyrimidin-2-yl)-1H-indol-2-yl)phenoxy)phenyl)-1,4,5,6-tetrahydropyrimidin-5-ol], in data set [2], the “selectivity for BoNT/A LC versus anthrax LF” value is given as “over ten-fold”.

Regarding `N#Cc1ccc(Oc2ccc(-c3cc4ccc(C5=NCCN5)cc4[nH]3)cc2)c(Cl)c1` [Compound 24c, 2-(4-(2-Chloro-4-cyanophenoxy)phenyl)-6-(4,5-dihydro-1H-imidazol-2-yl)indole], in data set [2], the “fold less potent than bis-imidazoline 13 against BoNT/A LC” value was determined as 2.4 fold and the “inhibitory activity … (in words)” value is recorded as “maintain inhibitory activity”. On to `Clc1ccc(Oc2ccc(-c3cc4ccc(C5=NCCN5)cc4[nH]3)cc2)c(Cl)c1` [Compound 29, 2-(4-(2,4-Dichlorophenoxy)phenyl)-6-(4,5-dihydro-1H-imidazol-2-yl)-1H-indole], for which the “inhibitory activity … (in words)” value in data set [2] is on record as “maintain inhibitory activity”. As to `N#Cc1ccc2cc(-c3ccc(F)cc3)[nH]c2c1` [Compound 39, 2-(4-Fluorophenyl)-1H-indole-6-carbonitrile], the IC50 in data set [2] and in data set [7] was more than 100 µM in each case. On to `NC(=O)c1ccc2cc(-c3ccc(F)cc3)[nH]c2c1` [Compound 40a, 2-(4-Fluorophenyl)-1H-indole-6-carboxamide], for which the concentration for half-maximal inhibition (IC50) in data set [2] and in data set [7] was more than 100 µM each time. Regarding `N=C(N)c1ccc2cc(-c3ccc(F)cc3)[nH]c2c1` [Compound 40b, 2-(4-Fluorophenyl)-1H-indole-6-carboximidamide], the IC50 (in general, the concentration at which inhibition is half-maximal) in data set [2] was more than 100 µM; in data set [7] it was 48 µM.

In the case of `Fc1ccc(-c2cc3ccc(C4=NCCN4)cc3[nH]2)cc1` [Compound 40c, 6-(4,5-Dihydro-1H-imidazol-2-yl)-2-(4-fluorophenyl)-1H-indole], the IC50 in data set [2] was more than 100 µM; in data set [7], 40 µM. As to `COc1ccc(-c2cc3ccc(C(N)=O)cc3[nH]2)cc1` [Compound 43a, 2-(4-Methoxyphenyl)-1H-indole-6-carboxamide], the IC50 in data set [2] and in data set [7] was more than 100 µM throughout. With `COc1ccc(-c2cc3ccc(C(=N)N)cc3[nH]2)cc1` [Compound 43b, 2-(4-Methoxyphenyl)-1H-indole-6-carboximidamide], the IC50 in data set [2] and in data set [7] was more than 100 µM throughout. With `COc1ccc(-c2cc3ccc(C4=NCCN4)cc3[nH]2)cc1` [Compound 43c, 2-(4-Methoxyphenyl)-6-(4,5-dihydro-1H-imidazol-2-yl)-1H-indole], the figures for the IC50 in data set [2] and in data set [7] were 45 µM and 61 µM, respectively. For `c1cc(-c2cc3ccc(C4=NCCN4)cc3[nH]2)ccc1C1=NCCN1` [Compound 44a, 6-(4,5-Dihydro-1H-imidazol-2-yl)-2-(4-(4,5-dihydro-1H-imidazol-2-yl)phenyl)-1H-indole], the “inhibitory activity against human MMP-1” value in data set [3] is given as “no inhibitory activities”. In addition, the “inhibitory activity against BoNT/B” value in data set [4] is listed as “no inhibitory activities”. The “inhibitory activity against MMP-9” value in data set [5] was “no inhibitory activities”. `c1cc(-c2cc3ccc(C4=NCCN4)cc3s2)ccc1C1=NCCN1` [Compound 46a, 2-(4-(6-(4,5-Dihydro-1H-imidazol-2-yl)benzo[b]thiophen-2-yl)phenyl)-4,5-dihydro-1H-imidazole] registered an IC50 in data set [8] of 28 µM. As for `NC(=O)c1ccc2cc(-c3ccc(F)cn3)sc2c1` [Compound 49, 2-(5-Fluoro-2-pyridyl)-6-benzo[b]thiophenecarboxamide], the IC50 in data set [2] and in data set [7] was more than 100 µM throughout. `NCCNc1ccc(-c2cc3ccc(C4=NCCN4)cc3s2)nc1` [Compound 50, N^1–(6-(6-(4,5-Dihydro-1H-imidazol-2-yl)benzo[b]thiophen-2-yl)pyridine-3-yl)ethane-1,2-diamine] gave an IC50 in data set [7] of more than 100 µM.
